Measured values: BigSolDB 2.1

Cc1cccc(Nc2ccccc2C(=O)O)c1C
solubility (mole fraction)
Settings | in DMAc | in DMF | in acetone | in cyclohexane | in ethanol | in ethyl acetate | in isopropanol | in n-heptane | in n-hexane | in water
298 K | 0.122 | 0.0171 | 0.0054 | 0.0009 | 0.0019 | 0.0039 | 0.002 | 0.0011 | 0.0013 | –
303 K | 0.138 | 0.0208 | 0.0055 | 0.0009 | 0.002 | 0.0045 | 0.0024 | 0.0013 | 0.0014 | –
308 K | 0.153 | 0.0275 | 0.0065 | 0.0011 | 0.0024 | 0.0055 | 0.0026 | 0.0015 | 0.0016 | –
313 K | 0.165 | 0.0327 | 0.007 | 0.0012 | 0.0032 | 0.0071 | 0.0033 | 0.0017 | 0.0018 | 1e-05
318 K | 0.175 | 0.0391 | 0.0084 | 0.0014 | 0.0037 | 0.0079 | 0.004 | 0.0018 | 0.002 | 3e-05
323 K | 0.19 | 0.0551 | 0.0098 | 0.0016 | 0.0042 | 0.0096 | 0.0053 | 0.0022 | 0.0024 | 5e-05
